Test results as given in patent US20200268720A1, “METHODS OF USE OF A CLASS IIA HDAC INHIBITOR” (GlaxoSmithKline LLC, priority 2016, published 2020).

Test system: MMTV-PyMT tumor transplants
Assay: Orthotopic transplant of MMTV-PyMT tumor pieces into wild-type FVBN or athymic nude Foxn1nu mice
Type: in vivo, mouse
Settings: treated for 20 days
Protocol: Two transplant experiments were performed where tumors were extracted from MMTV-PyMT mice and 50-100 mm^3 pieces were inserted into the 4th mammary fat pad of either wild-type FVBN mice or athymic nude Foxn1nu mice. Five days after implant mice were randomly placed into treatment groups and treated as indicated.

CC(=O)O[C@H]1C(=O)[C@@]2(C)[C@H]([C@H](OC(=O)c3ccccc3)[C@]3(O)C[C@H](OC(=O)[C@H](O)[C@@H](NC(=O)c4ccccc4)c4ccccc4)C(C)=C1C3(C)C)[C@]1(OC(C)=O)CO[C@@H]1C[C@@H]2O [paclitaxel, 5β,20-epoxy-1,2α,4,7β,10β,13α-hexa-hydroxytax-11-en-9-one 4,10-diacetate 2-benzoate 13-ester with (2R,3S)—N-benzoyl-3-phenylisoserine, reference compound]
transplant growth in T cell deficient athymic nude (Foxn1nu) recipient mice: efficacious
